Source: patent US5202315A, “Cephalosporin compounds” (Lucky, Ltd., priority 1989, dated 1993)
≈ marks a conversion by molar mass, not a printed value. Where two headings read alike, the source gives them in different places.

Columns and labels:
Escherichia coli = experiment: Antibacterial activity against clinically isolated strains, MIC; assay type: cell-based; conditions: 38 clinical isolates, broth microdilution test
[1] = In-vivo absorbency (plasma concentrations & pharmacokinetic parameters); design: species or system SD rat (male); conditions: plasma, SD male rat, iv 20 mg/kg; for concentration at 1 h: 60 min; for concentration at 1 h / concentration at 2 h: read-out: Plasma Conc.; for concentration at 2 h: 120 min; for AUC / half-life: two compartment model; for half-life: rat, iv, 20 mg/kg
Source text: The blood samples from the femoral vein of the rats were taken every hour after administration, and analyzed by bio-assay(agar well method).
Tested animal: SD male Rat (220~340 g)

Pseudomonas aeruginosa = experiment: Antibacterial activity against clinically isolated strains, MIC; assay type: cell-based
[2] = tested on: Shigella sonnei ATCC 11060; experiment: Antibacterial activity, MIC; assay type: cell-based; conditions: ATCC11060, ATCC 11060, agar two-fold dilution, 37° C., 20 hours, read-out: MIC
Procedure, shortened: (§1)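 Incubation at 37 °C for 20 h followed inoculation of 2 μl standard strain (10^7 CFU/ml) onto agar carrying the compound. Compound was incorporated into Mueller-Hinton agar as two-fold serial dilutions.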

[3] = tested on: Staphylococcus aureus ATCC 6538p; experiment: Antibacterial activity, MIC; assay type: cell-based; conditions: ATCC6538P, ATCC 6538p, agar two-fold dilution, 37° C., 20 hours, read-out: MIC
Procedure, shortened: as §1

[4] = tested on: Klebsiella pneumoniae ATCC 10031; experiment: Antibacterial activity, MIC; assay type: cell-based; conditions: ATCC10031, ATCC 10031, agar two-fold dilution, 37° C., 20 hours, read-out: MIC
Procedure, shortened: as §1

[5] = tested on: Escherichia coli ATCC 25922; experiment: Antibacterial activity, MIC; assay type: cell-based; conditions: ATCC25922, agar two-fold dilution, 37° C., 20 hours
Procedure, shortened: as §1

[6] = tested on: Citrobacter freundii ATCC 8090; experiment: Antibacterial activity, MIC; assay type: cell-based; conditions: ATCC8090, ATCC 8090, agar two-fold dilution, 37° C., 20 hours, read-out: MIC
Procedure, shortened: as §1

[7] = tested on: Escherichia coli ATCC 10536; experiment: Antibacterial activity, MIC; assay type: cell-based; conditions: ATCC10536, agar two-fold dilution, 37° C., 20 hours
Procedure, shortened: as §1

[8] = tested on: Serratia marcescens ATCC 27117; experiment: Antibacterial activity, MIC; assay type: cell-based; conditions: ATCC27117, ATCC 27117, agar two-fold dilution, 37° C., 20 hours, read-out: MIC
Procedure, shortened: as §1

[9] = tested on: Proteus mirabilis ATCC 25933; experiment: Antibacterial activity, MIC; assay type: cell-based; conditions: ATCC25933, ATCC 25933, agar two-fold dilution, 37° C., 20 hours, read-out: MIC
Procedure, shortened: as §1

[10] = tested on: Pseudomonas aeruginosa ATCC 27853; experiment: Antibacterial activity, MIC; assay type: cell-based; conditions: ATCC27853, ATCC 27853, agar two-fold dilution, 37° C., 20 hours, read-out: MIC
Procedure, shortened: as §1

[11] = tested on: Acinetobacter calcoaceticus ATCC 15473; experiment: Antibacterial activity, MIC; assay type: cell-based; conditions: ATCC15473, ATCC 15473, agar two-fold dilution, 37° C., 20 hours, read-out: MIC
Procedure, shortened: as §1

[12] = tested on: Bacillus cereus ATCC 11778; experiment: Antibacterial activity, MIC; assay type: cell-based; conditions: ATCC11778, ATCC 11778, agar two-fold dilution, 37° C., 20 hours, read-out: MIC
Procedure, shortened: as §1

[13] = tested on: Shigella flexneri ATCC 11836; experiment: Antibacterial activity, MIC; assay type: cell-based; conditions: ATCC11836, agar two-fold dilution, 37° C., 20 hours
Procedure, shortened: as §1

[14] = tested on: Salmonella typhimurium ATCC 14028; experiment: Antibacterial activity, MIC; assay type: cell-based; conditions: Salmonella enterica; ATCC 14028; agar two-fold dilution, 37° C., 20 hours; read-out: MIC
Procedure, shortened: as §1

[15] = tested on: Enterobacter cloacae ATCC 27508; experiment: Antibacterial activity, MIC; assay type: cell-based; conditions: ATCC27508, ATCC 27508, agar two-fold dilution, 37° C., 20 hours, read-out: MIC
Procedure, shortened: as §1

[16] = tested on: Proteus vulgaris ATCC 6059; experiment: Antibacterial activity, MIC; assay type: cell-based; conditions: ATCC6059, ATCC 6059, agar two-fold dilution, 37° C., 20 hours, read-out: MIC
Procedure, shortened: as §1

[17] = tested on: Bacillus megaterium ATCC 9885; experiment: Antibacterial activity, MIC; assay type: cell-based; conditions: Priestia megaterium, ATCC9885; ATCC 9885; agar two-fold dilution, 37° C., 20 hours; read-out: MIC
Procedure, shortened: as §1

[18] = tested on: Enterobacter aerogenes ATCC 29751; experiment: Antibacterial activity, MIC; assay type: cell-based; conditions: Klebsiella aerogenes, ATCC29751; ATCC 29751; agar two-fold dilution, 37° C., 20 hours; read-out: MIC
Procedure, shortened: as §1

[19] = tested on: Pseudomonas aeruginosa ATCC 25619; experiment: Antibacterial activity, MIC; assay type: cell-based; conditions: ATCC25619, ATCC 25619, agar two-fold dilution, 37° C., 20 hours, read-out: MIC
Procedure, shortened: as §1

[20] = tested on: Morganella morganii ATCC 8076h; experiment: Antibacterial activity, MIC; assay type: cell-based; conditions: ATCC8076H, agar two-fold dilution, 37° C., 20 hours
Procedure, shortened: as §1

[21] = tested on: Providencia rettgeri ATCC 9250; experiment: Antibacterial activity, MIC; assay type: cell-based; conditions: ATCC9250, agar two-fold dilution, 37° C., 20 hours
Procedure, shortened: as §1

[22] = tested on: Staphylococcus epidermidis ATCC 12228; experiment: Antibacterial activity, MIC; assay type: cell-based; conditions: ATCC12228, ATCC 12228, agar two-fold dilution, 37° C., 20 hours, read-out: MIC
Procedure, shortened: as §1

[23] = In-vivo absorbency (plasma concentrations & pharmacokinetic parameters); design: species or system SD rat (male); conditions: plasma, SD male rat, iv 20 mg/kg, read-out: Plasma Conc.
[24] = tested on: Staphylococcus aureus methicillin resistant; experiment: Antibacterial activity against clinically isolated strains, MIC; assay type: cell-based; conditions: methicillin resistant, 7 clinical isolates, broth microdilution test; for MIC90: read-out: MIC 90%
[25] = tested on: Staphylococcus aureus methicillin susceptible; experiment: as above; assay type: cell-based; conditions: methicillin susceptible, 42 clinical isolates, broth microdilution test; for MIC90: read-out: MIC 90%
[26] = 54 clinical isolates, broth microdilution test

| Structure (SMILES) | MIC50 (Escherichia coli) [µg/mL] | MIC90 (Escherichia coli) [µg/mL] | concentration at 1 h [1] [ng/mL] | concentration at 2 h [1] [ng/mL] | AUC [1] [ng·h/mL] | half-life ([1]; read-out: T1/2 (α)) [min] | half-life ([1]; read-out: T1/2 (β)) [min] | MIC50 (Pseudomonas aeruginosa; [26]) [µg/mL] | MIC [2] [µg/mL] | MIC [3] [µg/mL] | MIC [4] [µg/mL] | MIC [5] [µg/mL] | MIC [6] [µg/mL] | MIC [7] [µg/mL] | MIC [8] [µg/mL] | MIC [9] [µg/mL] | MIC [10] [µg/mL] | MIC [11] [µg/mL] | MIC [12] [µg/mL] | MIC [13] [µg/mL] | other results |
| --- | --- | --- | --- | --- | --- | --- | --- | --- | --- | --- | --- | --- | --- | --- | --- | --- | --- | --- | --- | --- | --- |
| CC[n+]1c(N)cc(N)nc1SCC1=C(C(=O)[O-])N2C(=O)C(NC(=O)/C(=N\OC(C)(C)C(=O)O)c3csc(N)n3)C2SC1 (centres unmarked) [Compound I-2] | 0.063 (≈ 0.0988 µM) | 0.13 (≈ 0.204 µM) | 2600 | 400 | 11400 | 2 | 23 | 2 (≈ 3.14 µM) | 0.063 (≈ 0.0988 µM) | 2 (≈ 3.14 µM) | 0.063 (≈ 0.0988 µM) | 0.063 (≈ 0.0988 µM) | 0.13 (≈ 0.204 µM) | 0.063 (≈ 0.0988 µM) | 0.13 (≈ 0.204 µM) | 0.031 (≈ 0.0486 µM) | 1 (≈ 1.57 µM) | 4 (≈ 6.27 µM) | 64 (≈ 100 µM) | 0.031 (≈ 0.0486 µM) | MIC90 (Pseudomonas aeruginosa; 54 clinical isolates, broth microdilution test, read-out: MIC 90%): 4 µg/mL (≈ 6.27 µM); MIC [14]: 0.25 µg/mL (≈ 0.392 µM); MIC [15]: 0.031 µg/mL (≈ 0.0486 µM); MIC [16]: 0.031 µg/mL (≈ 0.0486 µM); MIC [17]: 0.5 µg/mL (≈ 0.784 µM); MIC [18]: 2 µg/mL (≈ 3.14 µM); MIC [19]: 1 µg/mL (≈ 1.57 µM); MIC [20]: ≤ 0.008 µg/mL; MIC [21]: ≤ 0.008 µg/mL; MIC [22]: 1 µg/mL (≈ 1.57 µM); concentration at 1 min [23]: 55000 ng/mL; concentration at 2.5 min [23]: 33000 ng/mL; concentration at 5 min [23]: 22000 ng/mL; concentration at 10 min [23]: 14000 ng/mL; concentration at 20 min [23]: 7300 ng/mL; concentration at 40 min [23]: 4500 ng/mL; MIC50 [24]: > 128 µg/mL; MIC90 [24]: > 128 µg/mL; MIC50 [25]: 2 µg/mL (≈ 3.14 µM); MIC90 [25]: 2 µg/mL (≈ 3.14 µM) |
| CCC[n+]1c(N)cc(N)nc1SCC1=C(C(=O)[O-])N2C(=O)C(NC(=O)/C(=N\OC(C)C(=O)O)c3csc(N)n3)C2SC1 (centres unmarked) [Compound I-45] | 0.13 (≈ 0.204 µM) | 0.13 (≈ 0.204 µM) | 11000 | 3600 | 42900 | 4 | 38 | 4 (≈ 6.27 µM) | 0.063 (≈ 0.0988 µM) | 2 (≈ 3.14 µM) | 0.063 (≈ 0.0988 µM) | 0.063 (≈ 0.0988 µM) | 0.063 (≈ 0.0988 µM) | 0.063 (≈ 0.0988 µM) | 0.13 (≈ 0.204 µM) | 0.063 (≈ 0.0988 µM) | 2 (≈ 3.14 µM) | 8 (≈ 12.5 µM) | 64 (≈ 100 µM) | 0.031 (≈ 0.0486 µM) | MIC90 (Pseudomonas aeruginosa): 16 µg/mL (≈ 25.1 µM); MIC [14]: 0.25 µg/mL (≈ 0.392 µM); MIC [15]: 0.016 µg/mL (≈ 0.0251 µM); MIC [16]: 0.063 µg/mL (≈ 0.0988 µM); MIC [17]: 0.5 µg/mL (≈ 0.784 µM); MIC [18]: 1 µg/mL (≈ 1.57 µM); MIC [19]: 1 µg/mL (≈ 1.57 µM); MIC [20]: ≤ 0.008 µg/mL; MIC [21]: ≤ 0.008 µg/mL; MIC [22]: 1 µg/mL (≈ 1.57 µM); concentration at 1 min [23]: 147000 ng/mL; concentration at 2.5 min [23]: 84000 ng/mL; concentration at 5 min [23]: 67000 ng/mL; concentration at 10 min [23]: 52000 ng/mL; concentration at 20 min [23]: 29000 ng/mL; concentration at 40 min [23]: 16000 ng/mL; MIC50 [24]: > 128 µg/mL; MIC90 [24]: > 128 µg/mL; MIC50 [25]: 2 µg/mL (≈ 3.14 µM); MIC90 [25]: 2 µg/mL (≈ 3.14 µM) |
